Measured values reported in ChEMBL document CHEMBL1201862, “PubChem BioAssay data set” (2004).
Structures can show the parent of a compound that is named as a salt.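 Compound exposure: 48 hours, 5 concentrations, 96-well plates. Abbreviation: GI50, concentration required for 50% inhibition of growth.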 The source made the active and inactive calls. Rule as the data show it: active = GI50 up to about 1.1 µM and inactive = higher.

Tests used:
Experiment in all cases: NCI-60 cell line screen, 48 h
[1] = system: M14
[2] = system: OVCAR-3
[3] = system: SK-MEL-28
[4] = system: HOP-92
[5] = system: COLO 205
[6] = system: A498
[7] = system: SW-620
[8] = system: HCC 2998
[9] = system: SK-MEL-5
[10] = system: A549
[11] = system: SK-MEL-2
[12] = system: HCT-116
[13] = system: CCRF-CEM
[14] = system: PC-3
[15] = system: MDA-MB-231
[16] = system: SR
[17] = system: CAKI-1
[18] = system: DU-145
[19] = system: OVCAR-5
[20] = system: NCI-H460

SMILES	GI50 [1]	GI50 [2]	GI50 [3]	GI50 [4]	GI50 [5]	GI50 [6]	GI50 [7]	GI50 [8]	GI50 [9]	GI50 [10]	GI50 [11]	GI50 [12]	GI50 [13]	GI50 [14]	GI50 [15]	GI50 [16]	GI50 [17]	GI50 [18]	GI50 [19]	GI50 [20]
COC1=CC(=O)c2c(c(COP(=O)(N(C)CCBr)N(C)CCBr)cn2C)C1=O	< 0.0178 µM (active)	0.226 µM (active)	0.141 µM (active)	0.107 µM (active)	0.0521 µM (active)	0.279 µM (active)	< 0.0109 µM (active)	0.0373 µM (active)	0.0836 µM (active)	< 0.01 µM (active)	0.15 µM (active)	< 0.01 µM (active)	< 0.0158 µM (active)	0.643 µM (active)	0.296 µM (active)	< 0.01 µM (active)	< 0.01 µM (active)	0.0134 µM (active)	0.148 µM (active)	< 0.01 µM (active)
COc1ccc(OC)c(NC2=NCCO2)c1	> 100 µM (inactive)	> 100 µM (inactive)	> 100 µM (inactive)	< 0.01 µM (active)	> 100 µM (inactive)	> 100 µM (inactive)	13.6 µM (inactive)	> 100 µM (inactive)	> 100 µM (inactive)	> 100 µM (inactive)	18 µM (inactive)	> 100 µM (inactive)	> 100 µM (inactive)	> 100 µM (inactive)	> 100 µM (inactive)	66.4 µM (inactive)	15 µM (inactive)	> 100 µM (inactive)	> 100 µM (inactive)	> 100 µM (inactive)
O=[N+]([O-])c1ccc(CSc2c3ccccc3nc3ccccc23)cc1	4.56 µM (inactive)	4.53 µM (inactive)	4.67 µM (inactive)	3.75 µM (inactive)	3.13 µM (inactive)	23.7 µM (inactive)	2.88 µM (inactive)	16.1 µM (inactive)	16.7 µM (inactive)	23.9 µM (inactive)	16.9 µM (inactive)	2.78 µM (inactive)	2.69 µM (inactive)	7.43 µM (inactive)	13.5 µM (inactive)	3.13 µM (inactive)	15.4 µM (inactive)	2.3 µM (inactive)	15.3 µM (inactive)	20.6 µM (inactive)
CNC1=C(C)C(=O)C(O)=C([C@H](C)CCC=C(C)C)C1=O	22.2 µM (inactive)	11.7 µM (inactive)	31.4 µM (inactive)	33.1 µM (inactive)	25.4 µM (inactive)	19.5 µM (inactive)	23.9 µM (inactive)	31.8 µM (inactive)	14.4 µM (inactive)	20.3 µM (inactive)	17.7 µM (inactive)	33.9 µM (inactive)	3.95 µM (inactive)	22.6 µM (inactive)	48 µM (inactive)	7.38 µM (inactive)	11.6 µM (inactive)	30.6 µM (inactive)	77.8 µM (inactive)	10.5 µM (inactive)
CCOC(=O)c1cn(C)c(=S)n2c1nc1ccccc12	> 100 µM (inactive)	> 100 µM (inactive)	> 100 µM (inactive)	42.8 µM (inactive)	> 100 µM (inactive)	22.3 µM (inactive)	> 100 µM (inactive)	> 100 µM (inactive)	86.7 µM (inactive)	62.1 µM (inactive)	40.2 µM (inactive)	54.3 µM (inactive)	48.2 µM (inactive)	48.1 µM (inactive)	91.8 µM (inactive)	62.5 µM (inactive)	91.4 µM (inactive)	> 100 µM (inactive)	> 100 µM (inactive)	45.6 µM (inactive)
O=C(O)Cc1ccc(Oc2nc3ccccc3nc2-c2cccs2)cc1	66.4 µM (inactive)	48.4 µM (inactive)	60.4 µM (inactive)	34.3 µM (inactive)	31 µM (inactive)	22.1 µM (inactive)	> 100 µM (inactive)	57.4 µM (inactive)	72.9 µM (inactive)	46.7 µM (inactive)	84.1 µM (inactive)	54.6 µM (inactive)	49.3 µM (inactive)	46.3 µM (inactive)	> 100 µM (inactive)	38.8 µM (inactive)	55.7 µM (inactive)	81.7 µM (inactive)	62.7 µM (inactive)	50.7 µM (inactive)
CC1=C(C(=O)OC2CC3CCC2(C)C3(C)C)C2Nc3ccccc3N(C)C2O1 (stereo not given)	1.63 µM (inactive)	2.24 µM (inactive)	5.02 µM (inactive)	3.22 µM (inactive)	0.918 µM (active)	6.12 µM (inactive)	2.14 µM (inactive)	1.66 µM (inactive)	1.69 µM (inactive)	2.05 µM (inactive)	2.35 µM (inactive)	2.79 µM (inactive)	2.04 µM (inactive)	2.52 µM (inactive)	3.01 µM (inactive)	1.19 µM (inactive)	2.95 µM (inactive)	1.47 µM (inactive)	7.1 µM (inactive)	1.6 µM (inactive)
Nc1ccc(S(=O)(=O)Nc2cnc3c(Cl)cccc3n2)cc1 [CHLORSULFAQUINOXALINE]	274 µM (inactive)	167 µM (inactive)	151 µM (inactive)	71.3 µM (inactive)	23.9 µM (inactive)	131 µM (inactive)	26.1 µM (inactive)	99.5 µM (inactive)	144 µM (inactive)	117 µM (inactive)	226 µM (inactive)	7.28 µM (inactive)	52.6 µM (inactive)	86.1 µM (inactive)	> 69.7 µM (inactive)	56.4 µM (inactive)	56.2 µM (inactive)	175 µM (inactive)	192 µM (inactive)	129 µM (inactive)
c1ccc([C@H]2CN3CCSC3=N2)cc1 [LEVAMISOLE HYDROCHLORIDE]	> 100 µM (inactive)	> 100 µM (inactive)	> 100 µM (inactive)	> 100 µM (inactive)	> 100 µM (inactive)	> 100 µM (inactive)	> 100 µM (inactive)	> 100 µM (inactive)	> 100 µM (inactive)	> 100 µM (inactive)	> 100 µM (inactive)	> 100 µM (inactive)	> 100 µM (inactive)	> 100 µM (inactive)	> 100 µM (inactive)	> 100 µM (inactive)	> 100 µM (inactive)	> 100 µM (inactive)	> 100 µM (inactive)	> 100 µM (inactive)
